Experimental data from US11149028B2, “Methods for treating melanoma using small molecules” (NOVA SOUTHEASTERN UNIVERSITY, priority 2016, dated 2021).
“Also recorded” adds a separate entry of the source.

Experiments:
[1] = test system: LC3-II and beclin-1 in WM266-4 cells; test: Western blotting for LC3 and beclin-1, WM266-4; format: cell-based, human; settings: for LC3 and beclin-1, early time point: 30 min, 5-50 μM
Outline: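 WM266-4 and M14 melanoma cells, grown in E-MEM or RPMI-1640 with 10% FBS, were analysed by immunoblot with chemiluminescent detection. Band intensities were normalised to β-actin and expressed as fold of untreated control.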

[2] = test system: MAPK/PI3K dual phosphorylation of WM266-4 cells; test: MAPK-Akt flow cytometry assay; format: cell-based, human; settings: 48 h, 25 μM
Method: WM266-4 cells were seeded at 250,000 cells/well in E-MEM medium supplemented with 10% FBS and 1% penicillin/streptomycin in 6 well plates (Greiner Bio-One CellStar cat #655180) and allowed to adhere overnight. After incubation cells were treated with control (25 μM dabrafenib+25 μM trametinib), and 25 μM 2155-14 and 18 for 24 and 48 hours. Manufacturer's instructions for Muse™ PI3K/MAPK Dual Pathway Activation kit (EMD Millipore MCH200108) were followed. Cells were harvested, washed with PBS, and re-suspended in 1× assay buffer supplemented with fixation buffer and incubated on ice for 10 min. Cells were permeabilized with permeablization buffer supplied with the kit and incubated with an antibody cocktail (5 μL of Anti-Akt/PKB+5 μL of Anti-phospho-Akt). Cells were analyzed on Muse flow cytometer (EMD Millipore) using PI3K/MAPK Dual Pathway sub-routine.

[3] = test system: caspase 9 in WM266-4 cells; test: Caspase 9 activity assay; format: cell-based, human; settings: 0 and 4 h
Method: (§1) WM266-4 and M14 cells were plated in 384-well plates in 5 μL of complete media (EMEM and RPMI-1640, respectively). 5 μL of 200 μM 2155-14 and 2155-18 were added to the cells. Plates were incubated at 37° C., 5% CO2 and 95% relative humidity for various lengths of time. After incubation, 5 μL of caspase 3/7, caspase 8, and caspase 9 Glo® reagent (Promega cat #: G7570) were added to each well, and incubated for 15 min at room temperature. Luminescence was recorded using a Biotek Synergy H4 multimode microplate reader.

[4] = test system: caspase 3/7 in WM266-4 cells; test: Caspase 3/7 activity assay; format: cell-based, human; settings: 0 and 4 h
Method: as §1

[5] = molecular target: HDAC6 (Homo sapiens, UniProt Q9UBN7); test: HDAC inhibition testing; format: biochemical; settings: up to 100 μM
HDAC6, sequence (Q9UBN7 whole entry, species assumed): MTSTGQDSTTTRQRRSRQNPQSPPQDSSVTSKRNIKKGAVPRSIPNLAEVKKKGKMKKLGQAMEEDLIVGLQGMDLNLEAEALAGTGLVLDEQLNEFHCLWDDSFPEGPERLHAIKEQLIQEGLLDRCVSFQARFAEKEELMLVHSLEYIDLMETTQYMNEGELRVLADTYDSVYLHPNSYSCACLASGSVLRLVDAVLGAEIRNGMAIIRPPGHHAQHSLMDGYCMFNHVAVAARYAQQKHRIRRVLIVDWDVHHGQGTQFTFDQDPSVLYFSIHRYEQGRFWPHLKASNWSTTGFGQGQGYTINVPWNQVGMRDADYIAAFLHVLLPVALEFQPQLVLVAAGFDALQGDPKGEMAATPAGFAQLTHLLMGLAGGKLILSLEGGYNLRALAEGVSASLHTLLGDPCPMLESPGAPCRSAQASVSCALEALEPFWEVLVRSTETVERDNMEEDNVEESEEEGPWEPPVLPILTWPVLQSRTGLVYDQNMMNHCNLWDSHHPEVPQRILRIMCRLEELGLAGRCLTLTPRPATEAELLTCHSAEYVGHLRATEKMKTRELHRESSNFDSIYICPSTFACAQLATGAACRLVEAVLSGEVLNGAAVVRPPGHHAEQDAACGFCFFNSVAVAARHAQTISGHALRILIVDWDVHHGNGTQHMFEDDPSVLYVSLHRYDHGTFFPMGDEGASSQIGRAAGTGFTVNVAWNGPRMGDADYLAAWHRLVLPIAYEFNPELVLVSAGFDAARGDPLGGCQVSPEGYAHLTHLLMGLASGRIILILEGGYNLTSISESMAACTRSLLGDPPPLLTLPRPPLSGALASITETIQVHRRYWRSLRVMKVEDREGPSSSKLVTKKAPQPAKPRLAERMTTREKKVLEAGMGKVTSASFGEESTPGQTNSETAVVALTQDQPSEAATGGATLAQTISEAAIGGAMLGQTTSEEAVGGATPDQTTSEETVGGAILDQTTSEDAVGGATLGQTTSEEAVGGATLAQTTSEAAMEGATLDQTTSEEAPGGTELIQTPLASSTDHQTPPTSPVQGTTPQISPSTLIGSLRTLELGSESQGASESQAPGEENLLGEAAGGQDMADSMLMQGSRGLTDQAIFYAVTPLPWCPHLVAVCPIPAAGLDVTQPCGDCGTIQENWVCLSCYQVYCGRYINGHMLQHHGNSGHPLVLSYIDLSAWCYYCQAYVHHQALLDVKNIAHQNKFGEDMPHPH

[6] = test system: SKMEL-28 melanoma cell line; test: Hexosaminidase viability assay, SKMEL-28; format: cell-based; settings: Homo sapiens, SK-MEL-28; for IC50: V600EBRAF mutation
Method: (§2) Hexosaminidase assay was used to study the effects of 2155-14 and 2155-18 on cell viability or cell proliferation of both B16/F-10 and SKMEL-28 cells
(§3) (Landegren, U. Measurement of cell numbers by means of the endogenous enzyme hexosaminidase. Applications to detection of lymphokines and cell surface antigens. J Immunol Methods 1984, 67, 379-388). In brief, cells were plated in 96 well plates, grown overnight and treated the next day with increasing concentrations of compounds (0-50 μM) for 48 h. After 48 h of treatment, media was discarded and cells were washed with PBS to remove residual media from wells. Hexosaminidase substrate (75 μL) (Sigma Aldrich; cat #N9376) was added to each well, incubated at 37° C. for 30 min followed by addition of 112.5 μL of developer into each well. Final absorbance was measured at λ=405 nm. Cell growth was calculated as percent viability=[([…])×100], where A and B were the absorbance of treated and control cells, respectively.

[7] = test system: WM266-4 cells; test: CellTiter-Glo cell viability assay, WM266-4 (including rescue assays); format: cell-based, human; settings: for viability of WM266-4 cells: 24 h after addition
Method: (§4) Cells were plated in 384-well plates in 8 μL of media. Test compounds and dabrafenib (pharmacological assay control) were prepared as 10-point, 1:3 serial dilutions starting at 300 μM, then added to the cells (4 μL per well) using the Biomek Plates were incubated for 72 h at 37° C., 5% CO2 and 95% relative humidity. After incubation, 4 μL of CellTiter-Glo® (Promega cat #: G7570) were added to each well, and incubated for 15 min at room temperature. Luminescence was recorded using a Biotek Synergy H4 multimode microplate reader. Viability was expressed as a percentage relative to wells containing media only (0%) and wells containing cells treated with DMSO only (100%). Three parameters were calculated on a per-plate basis: (a) the signal-to-background ratio (SB); (b) the coefficient for variation [CV; CV=(standard deviation/mean)×100)] for all compound test wells; and (c) the Z′-factor (18). The IC50 value of the pharmacological control (dabrafenib, LC Laboratories #G-4408) was also calculated to ascertain the assay robustness. In case of viability rescue assays, cells were pre-treated with caspase, calpain, and autophagy inhibitors for 1-3 h before addition of test compounds. Time course viability assay was done with luminescence measurements performed at 4, 24, 48, and 72 h.

[8] = molecular target: HDAC2 (Homo sapiens, UniProt Q92769); test: HDAC inhibition testing; format: biochemical; settings: up to 100 μM
HDAC2, sequence (Q92769 whole entry): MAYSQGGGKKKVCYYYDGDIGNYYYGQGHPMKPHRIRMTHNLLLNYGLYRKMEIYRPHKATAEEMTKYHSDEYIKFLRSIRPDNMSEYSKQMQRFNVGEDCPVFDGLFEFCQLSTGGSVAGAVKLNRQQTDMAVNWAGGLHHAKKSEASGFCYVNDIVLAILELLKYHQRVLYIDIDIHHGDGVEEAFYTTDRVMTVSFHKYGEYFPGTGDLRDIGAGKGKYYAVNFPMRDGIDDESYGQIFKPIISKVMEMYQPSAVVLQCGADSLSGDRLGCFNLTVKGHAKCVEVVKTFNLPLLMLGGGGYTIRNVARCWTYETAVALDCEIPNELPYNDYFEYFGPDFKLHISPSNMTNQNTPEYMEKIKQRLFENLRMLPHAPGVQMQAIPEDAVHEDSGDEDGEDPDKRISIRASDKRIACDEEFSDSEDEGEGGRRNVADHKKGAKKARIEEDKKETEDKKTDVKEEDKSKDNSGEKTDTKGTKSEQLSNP

[9] = test system: caspase 8 in WM266-4 cells; test: Caspase 8 activity assay; format: cell-based, human; settings: 0 and 4 h
Method: as §1

[10] = test system: mouse embryonic fibroblasts (MEF); test: Viability of mouse embryonic fibroblasts; format: cell-based
Method: as §4

[11] = test system: HEPG2 cell line; test: Viability of HEPG2 liver cancer cells; format: cell-based
[12] = test system: MDA-MB-231 cell line; test: Viability of MDA-MB-231 breast cancer cells; format: cell-based
[13] = test system: B16/F10 murine metastatic melanoma; test: Hexosaminidase viability assay, B16/F10; format: cell-based; settings: Mus musculus; for IC50: p53 mutation
Method: as §2, §3

Compound	LC3 and beclin-1, early time point [1]	LC3-II level, WM266-4 ([1]; 24 h, 5-200 μM)	caspase 9 signal vs untreated control [3]	caspase 3/7 activity vs untreated control [4]	HDAC6 inhibition [5]	IC50 [6]	viability of WM266-4 cells [7]	HDAC2 inhibition [8]	caspase 8 signal vs untreated control [9]	toxicity to mouse embryonic fibroblasts [10]	selectivity against HEPG2 cell line [11]	selectivity against MDA-MB-231 cell line [12]	IC50 [13]	other results
O=C1NC[C@H](Cc2ccccc2)N(C[C@@H]2CCCN2C[C@@H](CC2CCCCC2)N2C[C@H](Cc3ccc(O)cc3)N(CCc3ccccc3)C(=O)C2=O)C1=O [Compound 2155-14, (S)-1((R)-1((S)-2-(((S)-6-benzyl-2,3-dioxopiperazin-1-yl)methyl)pyrrolidin-1-yl)-3-cyclohexylpropan-2-yl)-5-(4-hydroxybenzyl)-4-phenethylpiperazine-2,3-dione]	autophagy potentiation as compared to the untreated control was not observed; also recorded: No statistical significance between untreated control and test conditions	Dose dependent increase	significantly different from untreated control cells	not statistically different from untreated control	lack of HDAC inhibition	563 ± 40 nM	impaired	lack of HDAC inhibition	significantly different from untreated control cells	not toxic	selective	selective	2700 ± 200 nM	beclin-1 level, WM266-4 ([1]; 24 h, 5-200 μM): Dose dependent increase; PI3K-activated cells [2]: absence of PI3K activation; cells with single pathway activation [2]: not significantly affected; decrease of cell population with dual pathway activation vs untreated control [2]: ~20%; increase of cells where both pathways were inactive [2]: approximately 10%; cytotoxicity at 10 µM ([6]; starting at 10 μM, read-out: inhibition of SKMEL-28 viability): ~100%; inhibition of WM266-4 viability ([7]; 100 μM, 72 h): completely inhibited viability; viability after pre-incubation with caspase inhibitors ([7]; 24 h, 10 μM Z-IETD-FMK and Z-VAD-FMK): almost completely restored; viability of WM266-4 cells with caspase inhibitor pre-treatment ([7]; 48 h of exposure): ~25%; IC50 ([7]; 72 h): 4000 ± 500 nM; IC50 ([7]; 72 h, listed as 2529-1): 1500 ± 200 nM; cytotoxicity at 10 µM ([13]; starting at 10 μM, read-out: inhibition of B16/F10 viability): ~100%
O=C1NC[C@H](Cc2ccccc2)N(C[C@@H]2CCCN2C[C@H](Cc2ccccc2)N2C[C@H](Cc3ccc(O)cc3)N(CCC34CC5CC(CC(C5)C3)C4)C(=O)C2=O)C1=O [Compound 2155-18, (S)-4-(2-(adamantan-1yl)ethyl)-1-((S)-1-((S)-2-(((S)-6-benzyl-2,3-dioxopiperazin-1-yl)methyl)pyrrolidin-1-yl)-3-phenylpropan-2-yl)-5-(4-hydroxybenzyl)piperazine-2,3-dione]	No statistical significance between untreated control and test conditions	dose dependent inhibitory effect on basal autophagy	significantly different from untreated control cells	not statistically different from untreated control	lack of HDAC inhibition	890 ± 70 nM	impaired	lack of HDAC inhibition	significantly different from untreated control cells	not toxic	selective	selective	1150 nM	effect on MAPK/PI3K cell populations [2]: no effect on either cell population
